{"source": "patent US11459445B2", "about": "“Composition and molded body” (SUMITOMO CHEMICAL COMPANY, LIMITED, priority 2018, dated 2022)", "origin": "cited, not measured here", "test_system": "C. violaceum CV026", "settings": "N-hexanoyl homoserine lactone added; compared with no caffeine; Sensors 2013, 13, 5117-5129", "data": [{"molecule": "Cn1c(=O)c2c(ncn2C)n(C)c1=O", "note": "[caffeine]", "values": [{"measurement": "amount of violet pigment (violacein) produced", "value": "smaller"}]}]}
